Measured values: article PMC4578436, “Synthesis and evaluation of the biostability and cell compatibility of novel conjugates of nucleobase, peptidic epitope, and saccharide” (Beilstein Journal of Organic Chemistry, 2015)
Where a SMILES comes first, the peptide text is derived from it. The star is where a group is joined. Adenin9ylacetyl = Nc1ncnc2c1ncn2CC(=O)*

What was measured:
proteinase K [1] = target: T1, proteinase K (Parengyodontium album, UniProt P06873); test: biostability: incubation with proteinase K; type: in vitro ADME; settings: 24 h, 37 °C
T1 construct: purchased Sigma
Procedure: The existence of proteolytic enzymes in organism limits the applications of peptide-based biomaterials in vivo. […] When we changed the peptide sequence to EPTV, only 15% of 3 left.
Figure 3 Compounds remained after incubating with proteinase K (3.2 U/mL) for 24 h at 37 °C. (A) Each conjugate 1–8 is at the concentration of 0.2 mg/mL in HEPES buffer (pH 7.4). (B) Mixture of 1 + 8, 5 + 8, or 7 + 8 is in PBS buffer ([1] = [5] = [8] = 8.3 mM, pH 6.2). TEXT PRINTED IN THE PICTURE: (A) 4: Comp. remained %: Un-detectable | (A) 8: Comp. remained %: Un-detectable | (B) 8: Comp. remained %: Un-detectable (Mixtures: 7+8)
Starting materials and reagents were purchased from GL Biochem (Shanghai) Ltd. and Fisher Scientific without further purification unless otherwise noted. Proteinase K was purchased from Sigma (>800 unit/mL). The HeLa cell line (CCL-2) and the PC12 (CRL-1721.1) cell line were purchased from the American Type Culture Collection. All of the media were purchased from Invitrogen.

proteinase K [2] = target: T1, proteinase K; settings: peptide sequence alone; cited from earlier work
Text: This article reports the synthesis of a new class of conjugates containing a nucleobase, a peptidic epitope, and a saccharide and the evalution of their gelation, biostability, and cell compatibility. […] All the conjugates themselves (1–8) display excellent solubility in water without forming hydrogels. However, a mixture of 5 and 8 self-assembles to form nanofibers and results in a supramolecular hydrogel. The pr ...

T1 sequence (P06873 106-384): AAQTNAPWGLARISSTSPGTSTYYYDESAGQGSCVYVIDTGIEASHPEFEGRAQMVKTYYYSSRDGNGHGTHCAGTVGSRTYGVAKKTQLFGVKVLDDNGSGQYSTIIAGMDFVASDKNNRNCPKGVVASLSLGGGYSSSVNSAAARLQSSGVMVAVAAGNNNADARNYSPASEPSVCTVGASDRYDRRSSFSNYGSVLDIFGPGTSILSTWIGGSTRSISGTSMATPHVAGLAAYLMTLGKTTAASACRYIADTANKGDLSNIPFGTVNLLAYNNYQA

Compound | 8 remained after incubating the mixture 1 + 8 with proteinase K (proteinase K [1]; mixture 1 + 8, each 8.3 mM in PBS buffer pH 6.2, proteinase K 3.2 U/mL) | 8 remained after incubating the mixture 5 + 8 (hydrogel) with proteinase K (proteinase K [1]; mixture 5 + 8, each 8.3 mM in PBS buffer pH 6.2, proteinase K 3.2 U/mL) | 8 remained after incubating the mixture 7 + 8 with proteinase K (proteinase K [1]; mixture 7 + 8 in PBS buffer pH 6.2, same condition as 5 + 8, proteinase K 3.2 U/mL) | proteolytic stability of the peptidic epitope itself (proteinase K [2])
CC[C@H](C)[C@H](NC(=O)[C@H](CC(N)=O)NC(=O)[C@H](Cc1ccccc1)NC(=O)CNC(=O)[C@H](CC(C)C)NC(=O)Cn1cnc2c(N)ncnc21)C(=O)O [compound 8] (Adenin9ylacetyl-LGFNI-OH) | about 3% | about 50% | Un-detectable | –
LGFNI | – | – | – | susceptible to proteolysis
TTPV | – | – | – | proteolytic resistant
